Data published in PMC12652692, “Synthesis and In Vitro Anticancer Evaluation of Novel Phosphonium Derivatives of Chrysin” (International Journal of Molecular Sciences, 2025).

Key:
Assay in all cases: NCI60 one-dose screen
Type in all cases: cell-based
[1] = test system: A549/ATCC; conditions: Homo sapiens, read-out: Growth percent
Protocol: (§1) The screening results are presented in the Supplementary Materials (Table S1), where the cytotoxicity was determined for the 10 µM concentration. […] The negative numbers indicate significant decreases in the cell number. […] Compared to the reference chrysin (2), all phosphonium hybrids (3a–h) had significant antiproliferative activities. […] At the same time, it should be noted that more than 60% average reduction was also obtained in the case of the other examined conjugates (3a–h).
(§2) A detailed description of the NCI screening procedures, including the one-dose and five-dose tests, can be found in the Supplementary Materials, on the website of NCI [39], and in our previous work.
(§3) A detailed description of the NCI screening procedures can also be found on the website of NCI [39], and in our […]
(§4) All candidates were examined at first at a single high dose (10 μM) in the full NCI60 cell panel. The value reported for the one-dose test is growth relative to the no-drug control and relative to the time zero number of cells. This made possible the disclosure of both growth inhibition (numbers between 0 and 100) and lethality (numbers less than 0). For example, a value of 100 means no growth inhibition. A value of 20 would mean 80% growth inhibition. A value of 0 means no net growth over the course of the analysis. A value of −20 would mean 20% lethality. A value of −100 means all cells are dead. […]
(§5) concentration levels. The human tumor cell lines of the cancer screening panel were grown in RPMI 1640 medium containing 5% fetal bovine serum and 2 mM l-glutamine. Characteristically, cells were injected in 96-well microtiter plates in 0.1 mL at plating densities ranging from 5000 to 40,000 cells/well, depending on the doubling time of individual cell lines. After cell inoculation, the microtiter plates were incubated at 37 °C, 5% carbon dioxide, 95% air, and 100% relative humidity for 24 hours before the addition of tested compounds. After 24 hours, 2 plates of each cell line were fixed in situ with Cl3COOH (TCA), to represent a measurement of the cell population for each cell line at the time of drug addition (tz). Tested compounds were solubilized in DMSO at 400-fold the desired final maximum test concentration and stored frozen before application. In the course of the drug addition, an aliquot of frozen concentrate was thawed and diluted to twice the desired final maximum test concentration with a complete medium containing 50 μg mL−1 gentamicin. Additional four, 10-fold or ½ log serial dilutions were produced to furnish a total of five drug concentrations plus control. Aliquots of 0.1 mL of these different drug dilutions were added to the appropriate microtiter wells already containing 0.1 mL of medium, resulting in the required final drug concentrations.
(§6) Following drug addition, the plates were incubated at 37 °C, 5% carbon dioxide, 95% air, and 100% relative humidity for an additional 48 hours. For adherent cells, the test was finished by the addition of cold Cl3COOH. Cells were fixed in situ by the addition of 50 μL of cold 50% (w/v) Cl3COOH, and incubated at 4 °C for 1 hour. The supernatant was discarded, and the plates were washed with H2O (5×) and dried in air. Sulforhodamine B (SRB) solution (0.1 mL) at 0.4% (w/v) in 1% CH3COOH was added to each well, and plates were incubated at RT for 10 min. After staining, the unbound dye was removed by washing five times with 1% CH3COOH, and the plates were dried in the air. The bound stain is afterward solubilized with a 10 mM trizma base, and the absorbance is read on an automated plate reader at λ = 515 nm. Utilizing the seven absorbance measurements [time zero (tz), control growth (c), and test growth in the presence of the drug at the five concentration levels (ti)], the percentage growth was determined at each of the drug concentration levels. Growth inhibition (%) was calculated as:
(§7) [(ti − tz)/(c − tz)] × 100, for concentrations where ti ≥ tz (1) […]

[2] = test system: COLO 205; conditions: Homo sapiens; COLO 205, 10 μM; read-out: Growth percent
Protocol: as §1, §2, §3, §4, §5, §6, §7

[3] = test system: DU-145; conditions: Homo sapiens; DU-145, 10 μM; read-out: Growth percent
Protocol: as §1, §2, §3, §4, §5, §6, §7

[4] = test system: HCT-15; conditions: Homo sapiens; HCT-15, 10 μM; read-out: Growth percent
Protocol: as §1, §2, §3, §4, §5, §6, §7

[5] = test system: HL-60(TB); conditions: Homo sapiens, read-out: Growth percent
Protocol: as §1, §2, §3, §4, §5, §6, §7

[6] = test system: HT29; conditions: Homo sapiens, HT-29; HT29, 10 μM; read-out: Growth percent
Protocol: as §1, §2, §3, §4, §5, §6, §7

[7] = test system: IGROV1; conditions: Homo sapiens, IGROV-1; IGROV1, 10 μM; read-out: Growth percent
Protocol: as §1, §2, §3, §4, §5, §6, §7

[8] = test system: KM12; conditions: Homo sapiens; KM12, 10 μM; read-out: Growth percent
Protocol: as §1, §2, §3, §4, §5, §6, §7

[9] = test system: LOX IMVI; conditions: Homo sapiens, read-out: Growth percent
Protocol: as §1, §2, §3, §4, §5, §6, §7

[10] = test system: M14; conditions: Homo sapiens; M14, 10 μM; read-out: Growth percent
Protocol: as §1, §2, §3, §4, §5, §6, §7

[11] = test system: MCF7; conditions: Homo sapiens; MCF7, 10 μM; read-out: Growth percent
Protocol: as §1, §2, §3, §4, §5, §6, §7

[12] = test system: MDA-MB-435; conditions: Homo sapiens; MDA-MB-435, 10 μM; read-out: Growth percent
Protocol: as §1, §2, §3, §4, §5, §6, §7

[13] = test system: NCI-H522; conditions: Homo sapiens; NCI-H522, 10 μM; read-out: Growth percent
Protocol: as §1, §2, §3, §4, §5, §6, §7

[14] = test system: NCI/ADR-RES; conditions: Homo sapiens, read-out: Growth percent
Protocol: as §1, §2, §3, §4, §5, §6, §7

[15] = test system: OVCAR-3; conditions: Homo sapiens; OVCAR-3, 10 μM; read-out: Growth percent
Protocol: as §1, §2, §3, §4, §5, §6, §7

[16] = test system: OVCAR-5; conditions: Homo sapiens; OVCAR-5, 10 μM; read-out: Growth percent
Protocol: as §1, §2, §3, §4, §5, §6, §7

[17] = test system: SK-MEL-2; conditions: Homo sapiens; SK-MEL-2, 10 μM; read-out: Growth percent
Protocol: as §1, §2, §3, §4, §5, §6, §7

[18] = test system: SK-OV-3; conditions: Homo sapiens; SK-OV-3, 10 μM; read-out: Growth percent
Protocol: as §1, §2, §3, §4, §5, §6, §7

[19] = test system: U251; conditions: Homo sapiens, U-251; U251, 10 μM; read-out: Growth percent
Protocol: as §1, §2, §3, §4, §5, §6, §7

[20] = test system: UACC-257; conditions: Homo sapiens; UACC-257, 10 μM; read-out: Growth percent
Protocol: as §1, §2, §3, §4, §5, §6, §7

Structure (SMILES) | activity at 10 µM [1] [%] | activity at 10 µM [2] [%] | activity at 10 µM [3] [%] | activity at 10 µM [4] [%] | activity at 10 µM [5] [%] | activity at 10 µM [6] [%] | activity at 10 µM [7] [%] | activity at 10 µM [8] [%] | activity at 10 µM [9] [%] | activity at 10 µM [10] [%] | activity at 10 µM [11] [%] | activity at 10 µM [12] [%] | activity at 10 µM [13] [%] | activity at 10 µM [14] [%] | activity at 10 µM [15] [%] | activity at 10 µM [16] [%] | activity at 10 µM [17] [%] | activity at 10 µM [18] [%] | activity at 10 µM [19] [%] | activity at 10 µM [20] [%]
O=c1cc(-c2ccccc2)oc2cc(OCCCC[P+](c3ccccc3)(c3ccccc3)c3ccccc3)cc(O)c12 [3a] | -56 | -56.3 | -94.8 | -94.2 | -51.5 | -65 | -75.7 | -85.2 | -90.1 | -70.1 | -79.1 | -67.5 | -81.9 | -68.3 | -94 | -97.7 | -94.1 | -83.4 | -57.4 | -91
Cc1ccc([P+](CCCCOc2cc(O)c3c(=O)cc(-c4ccccc4)oc3c2)(c2ccc(C)cc2)c2ccc(C)cc2)cc1 [3b] | -49.5 | -64.5 | -85.9 | -88 | -60.4 | -60.7 | -46.9 | -75.5 | -91.2 | -75.2 | -74.8 | -88.2 | -74.4 | -65.7 | -88.2 | -80.3 | -76.9 | -75.3 | -50 | -72.2
COc1ccc([P+](CCCCOc2cc(O)c3c(=O)cc(-c4ccccc4)oc3c2)(c2ccc(OC)cc2)c2ccc(OC)cc2)cc1 [3c] | -91.2 | -68.3 | -90.7 | -64.2 | -31.2 | -82.8 | -6.99 | -86.2 | -78.8 | -1.24 | -56.8 | -89.6 | -84.9 | -13.2 | -68.1 | -59.3 | -88.6 | -77.7 | -92.6 | -94.7
O=c1cc(-c2ccccc2)oc2cc(OCCCC[P+](c3ccc(F)cc3)(c3ccc(F)cc3)c3ccc(F)cc3)cc(O)c12 [3d] | -41.1 | -68.4 | -79.2 | -48.6 | -46.9 | -69.8 | -64 | -81.6 | -93.7 | -75.5 | -84.8 | -90.8 | -74.4 | 65 | -72 | -89.9 | -77.3 | -88.2 | -40.7 | -82.1
O=c1cc(-c2ccccc2)oc2cc(OCCCC[P+](C3CCCCC3)(C3CCCCC3)C3CCCCC3)cc(O)c12 [3e] | -95.3 | -70.2 | -96.1 | -88.8 | -20.6 | -84.9 | -59.4 | -92 | -90.5 | -82.2 | -77 | -93.6 | -88 | -20.8 | -81.9 | -60.5 | -91.9 | -82.4 | -95.5 | -92.2
COc1c(C)cc([P+](CCCCOc2cc(O)c3c(=O)cc(-c4ccccc4)oc3c2)(c2cc(C)c(OC)c(C)c2)c2cc(C)c(OC)c(C)c2)cc1C [3f] | -66.1 | -62.2 | -92.7 | -58.9 | -27.7 | -72.7 | -38 | -82.3 | -68.7 | -68.3 | -58 | -81.9 | -77.3 | -66.8 | -69.8 | -87.8 | -77.6 | -58.3 | -76.6 | -79.7
Cc1ccccc1[P+](CCCCOc1cc(O)c2c(=O)cc(-c3ccccc3)oc2c1)(c1ccccc1C)c1ccccc1C [3g] | -94.1 | -97 | -97.1 | -94.7 | -97.4 | -97.9 | -99.1 | -95.8 | -97.5 | -97.5 | -95.4 | -98.3 | -98.5 | -97.9 | -99.1 | – | -98.5 | -97.9 | -97 | -99.3
O=c1cc(-c2ccccc2)oc2cc(OCCCC[P+](c3ccccc3)(c3ccccc3)c3ccccn3)cc(O)c12 [3h] | -43.5 | -75.9 | -95.3 | -88 | 0.68 | -60.6 | -80.1 | -94.6 | -84.1 | -84.3 | -62.6 | -80.8 | -72.3 | -41.3 | -93.7 | -93.4 | -95.4 | -76.5 | -96 | -89.8
